According to paper PMC7377239, “Cardiovascular Effects of Polychlorinated Biphenyls and Their Major Metabolites” (Environmental Health Perspectives, 2020):

Test system: iPSC-CMs, iPSC-ECs and HUVECs phenotypes
Test: ToxPi 2.0 integration of POD values and physicochemical descriptors
Set-up: species or system human
Details: ToxPi-scaled (0-1) score; for huvec.cyto.24hr / huvec.mito.24hr / huvec.mitoint.24hr / huvec.nma.24hr / huvec.tc.24hr / huvec.mtl.18hr / huvec.tlps.18hr / huvec.tta.18hr / huvec.ttl.18hr: HUVECs; for huvec.mtl.18hr / huvec.tlps.18hr / huvec.tta.18hr / huvec.ttl.18hr / endo.mtl.18hr / endo.tlps.18hr / endo.tta.18hr / endo.ttl.18hr: tube formation; for cm.amp.avg.90min / cm.amp.cv.90min / cm.bpm.90min / cm.cam.90min / cm.decay.rise.90min / cm.mii.90min / cm.mito.90min / cm.spacing.cv.90min / cm.tc.90min / cm.amp.avg.24hrs / cm.amp.cv.24hrs / cm.bpm.24hrs / cm.cam.24hrs / cm.decay.rise.24hrs / cm.mii.24hrs / cm.mito.24hrs / cm.spacing.cv.24hrs / cm.tc.24hrs: iPSC cardiomyocytes; for endo.cyto.24hr / endo.mito.24hr / endo.mitoint.24hr / endo.nma.24hr / endo.tc.24hr / endo.mtl.18hr / endo.tlps.18hr / endo.tta.18hr / endo.ttl.18hr: iPSC endothelial cells
Excerpt: Phenotypic responses were quantitatively assessed using concentration–response modeling as detailed elsewhere ([Sirenko et al. 2017]). Briefly, phenotypic readouts were normalized to vehicle controls and fit to a four-parameter logistic model in R studio software (version 3.1.1; R Development Core Team). Following EPA guidance on dose–response modeling, a cutoff of one standard deviation across means of vehicle control (i.e., 0.5% vol/vol DMSO in cell culture media) wells was applied to determine the point-of-departure (POD) values ([U.S. EPA 2012]). In the absence of a concentration–response, the highest tested concentration (i.e., 100μM ) was assigned as “no observable adverse effect level.” The concentration–response assessment R script, as well as templates for vehicle and concentration–response data, are available as a supplement to Sirenko et al. ([2017]). The ability of physicochemical properties to predict differences in PODs were evaluated by multiregression and mixed-effects modeling using R.
POD values were then integrated using ToxPi 2.0 ([Marvel et al. 2018]) software. In ToxPi, each slice is representative of cell type– and time-point–specific phenotypes. The area of each slice is proportional to the relative value (e.g., bioactivity or physicochemical descriptor value) of the chemical within the data set. ToxPi scores were used to rank PCBs and their metabolites according to their overall bioactivity and to determine variability in total observable biological responses and chemical characteristics for each major metabolite class and chlorination status (mono-, hexa-chlorinated). Additional visualizations such as dumbbell and principal components analysis plots were generated in R Studio (version 1.1.456; R version 3.5.1; R Development Core Team) using the ggplot2 package.

SMILES | huvec.cyto.24hr | huvec.mito.24hr | huvec.mitoint.24hr | huvec.nma.24hr | huvec.tc.24hr | huvec.mtl.18hr | huvec.tlps.18hr | huvec.tta.18hr | huvec.ttl.18hr | cm.amp.avg.90min | cm.amp.cv.90min | cm.bpm.90min | cm.cam.90min | cm.decay.rise.90min | cm.mii.90min | cm.mito.90min | cm.spacing.cv.90min | cm.tc.90min | cm.amp.avg.24hrs | cm.amp.cv.24hrs | also measured
Oc1cc(Cl)c(-c2cc(Cl)ccc2Cl)cc1Cl [4-OH-PCB 52] | 0.4769 | 0.5351 | 0.7457 | 0 | 0.4769 | 0.5555 | 0.604 | 0.1308 | 0.07185 | 0.2901 | 0.2696 | 1 | 1 | 0.2017 | 0.2919 | 1 | 0.1401 | 1 | 0.1949 | 0.09883 | cm.bpm.24hrs: 0.4544; cm.cam.24hrs: 0.15; cm.decay.rise.24hrs: 0.2583; cm.mii.24hrs: 0.1136; cm.mito.24hrs: 0.2161; cm.spacing.cv.24hrs: 0.3488; cm.tc.24hrs: 0.2027; endo.cyto.24hr: 0.3535; endo.mito.24hr: 0.3535; endo.mitoint.24hr: 0.1136; endo.nma.24hr: 0.0802; endo.tc.24hr: 0.3161; endo.mtl.18hr: 0.2459; endo.tlps.18hr: 0.3982; endo.tta.18hr: 0.1729; endo.ttl.18hr: 0.1737
Oc1ccc(-c2cccc(Cl)c2)cc1Cl [4-OH-PCB 11] | 0.4438 | 0.5256 | 0.5773 | 0.5884 | 0.4438 | 0.5918 | 0.1971 | 0 | 0.4794 | 0.7012 | 0.353 | 0.1603 | 0.5301 | 0.5246 | 0.417 | 0.3722 | 0.09289 | 0.417 | 0 | 0.6637 | cm.bpm.24hrs: 0.3605; cm.cam.24hrs: 0.33; cm.decay.rise.24hrs: 0.2928; cm.mii.24hrs: 0.2219; cm.mito.24hrs: 0.5458; cm.spacing.cv.24hrs: 0.4379; cm.tc.24hrs: 0.5639; endo.cyto.24hr: 0.145; endo.mito.24hr: 0.145; endo.mitoint.24hr: 0.2813; endo.nma.24hr: 0.4122; endo.tc.24hr: 0.08397; endo.mtl.18hr: 0.181; endo.tlps.18hr: 0.1031; endo.tta.18hr: 0.1681; endo.ttl.18hr: 0.1683
Oc1ccc(O)c(-c2ccc(Cl)cc2)c1 [2',5'-diOH-PCB 3, 4-Chloro-2′,5′-dihydroxybiphenyl] | 0.7001 | 0.7865 | 0.6634 | 0.309 | 0.7001 | 0.9783 | 0.7891 | 0.8497 | 0.663 | 0.2608 | 0.5898 | 0.1802 | 0.4648 | 0.2325 | 0.9473 | 0.8423 | 0.3549 | 0.4501 | 0.4147 | 0.7626 | cm.bpm.24hrs: 0.7331; cm.cam.24hrs: 0.5361; cm.decay.rise.24hrs: 0.935; cm.mii.24hrs: 1; cm.mito.24hrs: 1; cm.spacing.cv.24hrs: 1; cm.tc.24hrs: 0.9136; endo.cyto.24hr: 0.4719; endo.mito.24hr: 0.4719; endo.mitoint.24hr: 0.1112; endo.nma.24hr: 0.3504; endo.tc.24hr: 0.5028; endo.mtl.18hr: 0.5595; endo.tlps.18hr: 0.8388; endo.tta.18hr: 0.3744; endo.ttl.18hr: 0.3867
Clc1cccc(-c2cccc(Cl)c2)c1 [PCB 11, 3,3′-Dichlorobiphenyl] | 0.2265 | 0.2773 | 0.5099 | 0.3029 | 0.2265 | 0 | 0.1652 | 0 | 0 | 0.6423 | 0.3673 | 0.1538 | 0.6939 | 0.6828 | 0.779 | 0.7948 | 0.06972 | 0.7336 | 0.07152 | 0.5878 | cm.bpm.24hrs: 0.1537; cm.cam.24hrs: 0.1401; cm.decay.rise.24hrs: 0.254; cm.mii.24hrs: 0.6195; cm.mito.24hrs: 0.2384; cm.spacing.cv.24hrs: 0.3725; cm.tc.24hrs: 0.241; endo.cyto.24hr: 0; endo.mito.24hr: 0; endo.mitoint.24hr: 0; endo.nma.24hr: 0; endo.tc.24hr: 0; endo.mtl.18hr: 0; endo.tlps.18hr: 0; endo.tta.18hr: 0; endo.ttl.18hr: 0
Clc1ccc(-c2ccccc2)cc1 [PCB 3, 4-chlorobiphenyl] | 0 | 0 | 0 | 0 | 0 | 0.3075 | 0 | 0.9931 | 0.7484 | 0.3083 | 0.6784 | 0.3832 | 0.5745 | 0 | 1 | 0.6328 | 1 | 0.6608 | 0.05114 | 0.2083 | cm.bpm.24hrs: 0.1867; cm.cam.24hrs: 0.3496; cm.decay.rise.24hrs: 0.3179; cm.mii.24hrs: 0.587; cm.mito.24hrs: 0.5833; cm.spacing.cv.24hrs: 0.1653; cm.tc.24hrs: 0.6127; endo.cyto.24hr: 0; endo.mito.24hr: 0; endo.mitoint.24hr: 0; endo.nma.24hr: 0; endo.tc.24hr: 0; endo.mtl.18hr: 0; endo.tlps.18hr: 0; endo.tta.18hr: 0; endo.ttl.18hr: 0
